Source: patent US12178838B2, “Synthetic neuromodulatory peptides” (Lactocore, Inc., priority 2019, dated 2024)

Tested on: zebrafish (Danio rerio)
Experiment: Shoaling behavior test in zebrafish
Format: in vivo
Settings: ip, DKTE 1 mg/kg, vs control
Procedure: The tested substances were injected into the zebrafish intraperitoneally (ip) using an insulin syringe (0.5 ml, 30 g) 10 minutes before the test. The saline solution (0.9% NaCl) was used as a solvent. Anesthesia and immobilization of the animals were achieved by placing them in water at a temperature of 10° C. Control group fish received intraperitoneal injections of an equivalent volume of solvent, also after going through a pre-cooling procedure.
A Plexiglas container with a removable partition (shown in FIG. 4) was used as a setup for investigating the shoaling behavior of zebrafish. A shoal of 5 adult Danio rerio specimens was placed into in the small compartment; and the test fish was placed in a large compartment. Diffused lighting in this installation was provided by the usual lighting of the room (about 200 Lx).
The shoaling behavior test was performed as described in Parker et al., 2014. (Parker et al. (2014) The utility of zebrafish to study the mechanisms by which ethanol affects social behavior and anxiety during early brain development. Prog. Neuro-Psychopharmacology Biol. Psychiatry. 94-100). The video recording began simultaneously with placing the zebrafish in the set-up and recorded for 5 minutes. The videos were processed using RealTimer (OpenScience Ltd., Moskow, Russia). During the processing of the records, the residence time and the number of visits to the three conventional zones of the aquarium wall (near the “shoal” in the middle of the aquarium, and near the opposite side; all three were equal in size) were recorded.

Structure (SMILES): CN1C(=O)CN=C(c2ccccc2)c2cc(Cl)ccc21 [Diazepam]
- time spent in the compartment near the shoal (diazepam 1.25 mg/kg, ACZ-10 0.6 mg/kg, BCM-7 5 mg/kg): statistically significant decrease
- time spent outside the shoaling compartment (near the wall opposite to the shoal) (diazepam 5 mg/kg, FQSE 10 mg/kg): increase
